Measurements as given in ChEMBL document CHEMBL5344423, “Alstoboonine, an Ulean-Type Indole Alkaloid from Alstonia boonei Leaves” (J Nat Prod, 2024).
Converted amounts (≈) assume the structure as drawn. The source made the active and inactive calls. The calls are words filed in the database; no cut-off is given here.

Experiments:
Trypanosoma brucei = test: Antiprotozoal activity against bloodstream form Trypanosoma brucei STIB 900 trypomastigotes […] by microplate reader analysis; format: functional, organism-based
Trypanosoma cruzi = test: Antiprotozoal activity against Trypanosoma cruzi Tulahuen C4 amastigotes measured after 96 hrs by microplate reader analysis; format: functional, organism-based; conditions: Tulahuen C4, 96 h
Leishmania donovani = test: Antiprotozoal activity against Leishmania donovani MHOM-ET-67/L82 amastigotes incubated for 72 hrs by microplate reader analysis; format: functional, organism-based; conditions: MHOM-ET-67/L82, 72 h
Plasmodium falciparum = test: Antiprotozoal activity against Plasmodium falciparum NF54 intraerythrocytic forms incubated for 48 hrs by 3H-hypoxanthine incorporation assay; format: functional, organism-based
[1] = Cytotoxicity against rat L6 cells incubated for 72 hrs by Resazurin-dye based assay; format: toxicity, cell-based
[2] = Cytotoxicity against human MCF7 cells assessed as reduction in cell viability after 48 hrs by MTT assay; format: toxicity, cell-based
Caenorhabditis elegans [3] = test: Anthelmintic activity against Caenorhabditis elegans N2 Bristol assessed as lethality on young adult worms at 10 mM incubated for 48 hrs; format: functional, organism-based
Caenorhabditis elegans [4] = test: Anthelmintic activity against Caenorhabditis elegans N2 Bristol assessed as mortality at 40 mM relative to control
Caenorhabditis elegans [5] = test: Anthelmintic activity against Caenorhabditis elegans N2 Bristol assessed as lethality; format: functional
Caenorhabditis elegans [6] = test: Anthelmintic activity against Caenorhabditis elegans N2 Bristol assessed as mortality at 10 mM relative to control; format: functional

**Q.** Which results are given for `C=CC12OC[C@@]3(C(=O)OC)c4[nH]c5ccccc5c4C1NCCC23O`?
**A.** IC50 (Trypanosoma brucei): 20 µg/mL (≈ 58.8 µM); IC50 (Trypanosoma cruzi): > 100 µg/mL; IC50 (Leishmania donovani): 75 µg/mL (≈ 220 µM); IC50 (Plasmodium falciparum): 2.4 µg/mL (≈ 7.05 µM); IC50 at 72 h [1]: 50 µg/mL (≈ 147 µM); IC50 at 48 h [2]: > 100 µM

**Q.** What does the source list for `C/C=C1/CN2CC[C@@]34C(=Nc5c(OC)cccc53)O/C=C(/C(=O)OC)[C@H]1CC24`?
**A.** IC50 at 48 h [2]: > 100 µM; Activity (Caenorhabditis elegans [3]): inactive

**Q.** Which IC50 (Trypanosoma cruzi) does the source give for `O=C(Cn1ccnc1[N+](=O)[O-])NCc1ccccc1` [BENZNIDAZOLE] here?
**A.** 0.69 µg/mL (≈ 2.65 µM)

**Q.** With `COC(=O)[C@@]1(c2cc3ccccc3[nH]2)COCC=C2CN(C)CC[C@@H]21` [6,7-SECO-ANGUSTILOBINE B] as the molecule, how does the IC50 at 48 h [2] read?
**A.** > 100 µM

**Q.** Which IC50 at 48 h [2] does the source give for `COC(=O)/C1=C/OC2=Nc3c(OC)cccc3[C@@]23CCN2C[C@@H](C(C)=O)[C@@H]1CC23` here?
**A.** > 100 µM

**Q.** Which IC50 (Leishmania donovani) does the source give for `CCCCCCCCCCCCCCCCOP(=O)([O-])OCC[N+](C)(C)C` [MILTEFOSINE] here?
**A.** 0.26 µg/mL (≈ 0.638 µM)

**Q.** Which mortality at 40000 µM (Caenorhabditis elegans [4]) does the source give for `c1ccc([C@H]2CN3CCSC3=N2)cc1` [LEVAMISOLE] here?
**A.** 71%

**Q.** With `COC(=O)[C@@]1(c2cc3ccccc3[nH]2)COC[C@H]2O[C@]23CN(C)CC[C@@H]31` as the molecule, how does the IC50 at 48 h [2] read?
**A.** > 100 µM

**Q.** Which results are given for `COC(=O)C1=C2Nc3c(OC)cccc3[C@@]23CCN2C[C@@H]([C@H](C)O)[C@@H]1C[C@H]23`?
**A.** IC50 at 48 h [2]: > 100 µM; Activity (Caenorhabditis elegans [3]): inactive

**Q.** What does the source list for `COC(=O)/C1=C/OC2=Nc3c(OC)cccc3[C@@]23CCN2C[C@@H]([C@H](C)O)[C@@H]1CC23`?
**A.** IC50 at 48 h [2]: > 100 µM; LC50 (Caenorhabditis elegans [5]): 400 µM; mortality at 10000 µM (Caenorhabditis elegans [6]): 100%

**Q.** With `C=C[C@@]12CN3CC[C@]1(O)[C@@](C(=O)OC)(CO2)c1[nH]c2ccccc2c1C3` as the molecule, how does the IC50 at 48 h [2] read?
**A.** 26 µM

**Q.** What about the Activity (Caenorhabditis elegans [3]) of the same molecule?
**A.** inactive

**Q.** Which IC50 at 48 h [2] does the source give for `COC(=O)C1=C2Nc3c(OC)cccc3[C@@]23CCN2C[C@@H](C(C)=O)[C@@H]1C[C@H]23` here?
**A.** > 100 µM
